Reference: patent US9422357

Conditions: disulfide bond; 38-membered ring

S1C(disialo)•N19C(GlcNAc)-SRIF28 gave a ring closure, yield after HPLC of 59%.
